Patent publication US20160115540A1, “PRODRUGS AND DRUGS” (Biogen MA Inc., priority 2013, published 2016)
Counter-ions that a name gives are not always drawn.

Tested on: blood, cerebellum, spinal cord
Assay: Transcriptional profiling, chronic dosing, EAE mice: blood, cerebellum, spinal cord
Type: in vivo
Conditions: for Number of differentially expressed genes identified: Cerebellum / Number of differentially expressed genes identified: Spinal Cord / Number of differentially expressed genes identified: Whole blood: EAE, Chronic Dosing
Protocol: 2011 March 134(Pt3): 678-92. […] FIG. 17 depicts exemplary immunophenotyping panels used to analyze various immune cell populations (e.g., T cells, T regulatory cells, NK cells, B cells, myeloid cells). […] Animals were exposed to CO2 and whole blood collected via cardiac puncture. Two 100 μl aliquots of whole blood were collected in 1.5 mL microcentrifuge tubes and snap frozen in liquid nitrogen. Peripheral (liver, spleen, kidney and jejunum) and CNS brain (cerebellum, hippocampus, striatum and cortex) tissues were harvested and snap frozen in liquid nitrogen, with special care taken to collect tissues of similar size and from the same location. All samples were stored at -80° C. until RNA extraction was conducted. For RNA preparation, frozen tissues were placed in 2 mL RNAse-free 96-well blocks with 1.5 mL QIAzol Lysis Reagent (QIAgen) and a 3.2 mm stainless steel bead (BioSpec Products, Bartlesville, Okla.). Tissues were disrupted for four cycles of 45 seconds in a Mini-Beadbeater (Biospec Products). RNA was extracted in chloroform and the aqueous phase was mixed with an equal volume of 70% ethanol. Extracted RNA was applied to RNeasy 96 plates and purified by the spin method according to the manufacturer's protocol (RNeasy 96 Universal Tissue Protocol, QIAgen, Hilden Germany). 50 ul of snap frozen mouse blood was re-suspended in lysis buffer with proteinase K and arrayed into deep-well plates for automated RNA extraction. RNA extractions were completed on […] (Beckman Coulter, Indianapolis, Ind.) using Agencourt RNAdvance Blood kit (Part number A35604) according to the manufacturer's specifications. RNA integrity was assessed using the HT RNA reagent kit (Part number 760410, Caliper Life Sciences, Hopkinton, Mass.) using a LabChip GX (PerkinElmer, Waltham, Mass.). RNA samples with a RQS score of >8.0 were considered high quality for downstream microarray processing. […] Washing and staining of the hybridized arrays were completed as described in the GeneChip Expression analysis technical manual for HT plate arrays using the Genechip® Array Station (Affymetrix, Santa Clara, Calif.) with modifications as described in […] et al. The processed GeneChip® plate arrays were scanned using GeneTitan scanner (Affymetrix, Santa Clara, Calif.). Affymetrix scans were subject to quality control (QC) measures. These tests included a visual inspection of the distribution of raw signal intensities and an assessment of RNA degradation, relative log expression (RLE), and normalized unscaled standard error (NUSE). All sample scans that passed these QC metrics were included in the analysis. […] Nucleic Acids Res 2003; 31:e15; Li C, et al. Genome Biol 2001; 2:[…]0032). […] Stat Appl Genet Mol Biol 2004; 3:Article3). […] Springer Science+Business Media 2005).

[1] = 100 mpk DMF-vs-90 mpk MMF, 7 h after last dosing
[2] = 100 mpk DMF-vs-90 mpk MMF, 12 h after last dosing
[3] = 100 mpk DMF-vs-Vehicle, 7 h after last dosing
[4] = 100 mpk DMF-vs-Vehicle, 12 h after last dosing
[5] = spinal cord, 100DMF-vs-90MMF, 7 h
[6] = spinal cord, 100DMF-vs-90MMF, 12 h
[7] = spinal cord, 100DMF-vs-Veh, 7 h
[8] = spinal cord, 100DMF-vs-Veh, 12 h
[9] = tissue not given, 100DMF-vs-90MMF, 7 h
[10] = tissue not given, 100DMF-vs-90MMF, 12 h
[11] = 90 mpk MMF-vs-Vehicle, 7 h after last dosing
[12] = 90 mpk MMF-vs-Vehicle, 12 h after last dosing
[13] = spinal cord, 100MMF-vs-Veh, 7 h
[14] = spinal cord, 100MMF-vs-Veh, 12 h
[15] = tissue not given, 100MMF-vs-Veh, 12 h

## COC(=O)/C=C/C(=O)OC [DMF, dimethyl fumarate]
[1]
  Number of differentially expressed genes identified: Cerebellum: 2
  Number of differentially expressed genes identified: Spinal Cord: 2
  Number of differentially expressed genes identified: Whole blood: 0
[2]
  Number of differentially expressed genes identified: Cerebellum: 3
  Number of differentially expressed genes identified: Spinal Cord: 40
  Number of differentially expressed genes identified: Whole blood: 0
[3]
  Number of differentially expressed genes identified: Cerebellum: 0
  Number of differentially expressed genes identified: Spinal Cord: 3
  Number of differentially expressed genes identified: Whole blood: 8
[4]
  Number of differentially expressed genes identified: Cerebellum: 0
  Number of differentially expressed genes identified: Spinal Cord: 3
  Number of differentially expressed genes identified: Whole blood: 8
[5]
  FC 2900055J20Rik (1430675_PM_at): −1.58
  FC LOC100047123 (1446154_PM_at): −1.56
[6]
  FC 1423020_PM_at (no gene symbol): 1.59
  FC 1440425_PM_at (no gene symbol): 1.57
  FC 1440449_PM_at (no gene symbol): 1.61
  FC 1441606_PM_at (no gene symbol): 1.57
  FC 1442650_PM_at (no gene symbol): 1.92
  FC 1442813_PM_at (no gene symbol): 2.21
  FC 1443212_PM_at (no gene symbol): 1.82
  FC 1443237_PM_at (no gene symbol): 1.59
  FC 1444001_PM_at (no gene symbol): 1.58
  FC 1446481_PM_at (no gene symbol): 1.59
  FC 1447354_PM_at (no gene symbol): 1.54
  FC 1458147_PM_at (no gene symbol): 1.60
  FC 1458697_PM_at (no gene symbol): 1.72
  FC 1459235_PM_at (no gene symbol): 1.65
  FC 1459288_PM_at (no gene symbol): 1.66
  FC 1459310_PM_at (no gene symbol): 1.87
  FC 2410089E03Rik 1443422_PM_at: 1.55
  FC 2410089E03Rik (1458493_PM_a_at): 2.00
  FC 4933439F18Rik (1427068_PM_x_at): 1.52
  FC 6330436F06Rik (1433015_PM_at): 1.52
  FC 9330156P08Rik (1458073_PM_at): 2.08
  FC A230006K03Rik (1432408_PM_a_at): 1.59
  FC A730034C02 /// Mtap2 (1421327_PM_at): 1.69
  FC B230112I24Rik (1433187_PM_at): 1.64
  FC BC066028 (1439850_PM_at): 1.56
  FC Cdk14 (1453956_PM_a_at): 1.76
  FC Dnajc27 (1434946_PM_at): 1.85
  FC Dnm3 (1446265_PM_at): 1.54
  FC Fgf14 (1449958_PM_a_at): 1.76
  FC Flnb (1445534_PM_at): 1.55
  FC Gzma (1417898_PM_a_at): −5.32
  FC Htr2c (1450477_PM_at): 1.65
  FC Kif22 (1423813_PM_at): −1.68
  FC Per3 (1442243_PM_at): 1.54
  FC Pole (1448650_PM_a_at): −1.60
  FC Rgs7bp (1437559_PM_at): 1.50
  FC Sema6d (1446536_PM_at): 1.57
  FC Sgol1 (1418919_PM_at): −1.61
  FC Slc25a27 (1440090_PM_at): 1.56
  FC Zfp398 (1456639_PM_at): 1.57
[7]
  FC Aox1 (1419435_PM_at): 1.68
  FC Rnf128 (1418318_PM_at): 1.72
  FC Rnf128 (1449036_PM_at): 1.60
[8]
  FC 1446104_PM_at (no gene symbol): 1.57
  FC Gzma (1417898_PM_a_at): −4.64
  FC Kif22 (1423813_PM_at): −1.62
[9]
  FC 1459289_PM_at (no gene symbol): 1.52
  FC Nr4a2 (1455034_PM_at): −1.51
[10]
  FC 1444901_PM_at (no gene symbol): −1.68
  FC Cyp4f16 /// Gm9705 (1430172_PM_a_at): 1.54
  FC Nr4a3 (1438796_PM_at): −1.82

## COC(=O)/C=C/C(=O)O [MMF, monomethyl fumarate]
[11]
  Number of differentially expressed genes identified: Cerebellum: 2
  Number of differentially expressed genes identified: Spinal Cord: 7
  Number of differentially expressed genes identified: Whole blood: 19
[12]
  Number of differentially expressed genes identified: Cerebellum: 3
  Number of differentially expressed genes identified: Spinal Cord: 2
  Number of differentially expressed genes identified: Whole blood: 7
[13]
  FC Agxt2l1 (1431406_PM_at): 1.78
  FC Cxcl11 (1419697_PM_at): −3.36
  FC Ddx58 (1436562_PM_at): −1.67
  FC Ifi44 (1423555_PM_a_at): −1.99
  FC Ifit1 (1450783_PM_at): −1.67
  FC Plac8 (1451335_PM_at): −2.04
  FC Tor3a (1450454_PM_at): −1.57
[14]
  FC 1439946_PM_at (no gene symbol): −1.62
  FC Dbp (1418174_PM_at): −1.58
Tissue not given, 100MMF-vs-Veh, 7 h
  FC 1459557_PM_at (no gene symbol): 2.30
[15]
  FC 1442025_PM_a_at (no gene symbol): −1.84
  FC 1442026_PM_at (no gene symbol): −1.91
  FC 4933423P22Rik (1454223_PM_at): 1.53
